Measured values as given in ChEMBL document CHEMBL5620430, “Design, synthesis and biological evaluation of indazole derivatives as selective covalent inhibitors of FGFR4 in wild-type and gatekeeper mutants” (Eur J Med Chem, 2023).
Activity calls are given as the source filed them. No cut-off for these calls is given here.

Experiments:
[1] = Metabolic stability in liver microsomes (unknown origin) assessed as half life; assay type: ADME, Microsome
Hep 3B2 = experiment: Antiproliferative activity against human Hep3B cells measured after 24 to 48 hrs by MTT assay; assay type: functional, cell-based
HepG2 = experiment: Antiproliferative activity against human HepG2 cells measured after 24 to 48 hrs by MTT assay; assay type: functional, cell-based
[2] = Half life in Sprague-Dawley rat at 10 mg/kg, po by LC-MS/MS analysis; assay type: ADME, organism-based; details: in vivo
[3] = Cmax in Sprague-Dawley rat at 2 mg/kg, iv by LC-MS/MS analysis; assay type: ADME, organism-based; details: in vivo
[4] = Cmax in Sprague-Dawley rat at 10 mg/kg, po by LC-MS/MS analysis; assay type: ADME, organism-based; details: in vivo
[5] = AUC (0 to t) in Sprague-Dawley rat at 2 mg/kg, iv by LC-MS/MS analysis; assay type: ADME, organism-based; details: in vivo
[6] = MRT (0 to t) in Sprague-Dawley rat at 2 mg/kg, iv by LC-MS/MS analysis; assay type: ADME, organism-based; details: in vivo
[7] = MRT (0 to t) in Sprague-Dawley rat at 10 mg/kg, po by LC-MS/MS analysis; assay type: ADME, organism-based; details: in vivo
[8] = Observed clearance in Sprague-Dawley rat at 2 mg/kg, iv by LC-MS/MS analysis; assay type: ADME, organism-based; details: in vivo
[9] = Oral bioavailability in Sprague-Dawley rat at 10 mg/kg by LC-MS/MS analysis; assay type: ADME, organism-based; details: in vivo
[10] = molecular target: T1, Fibroblast growth factor receptor 4 (Homo sapiens, UniProt P22455); experiment: Inhibition of FGFR4 in human Huh-7 cells assessed as inhibition of ERK1/2 phosphorylation measured after 2 hrs by Western blot analysis; assay type: cell-based
T1 sequence (P22455 22-802 limits assumed): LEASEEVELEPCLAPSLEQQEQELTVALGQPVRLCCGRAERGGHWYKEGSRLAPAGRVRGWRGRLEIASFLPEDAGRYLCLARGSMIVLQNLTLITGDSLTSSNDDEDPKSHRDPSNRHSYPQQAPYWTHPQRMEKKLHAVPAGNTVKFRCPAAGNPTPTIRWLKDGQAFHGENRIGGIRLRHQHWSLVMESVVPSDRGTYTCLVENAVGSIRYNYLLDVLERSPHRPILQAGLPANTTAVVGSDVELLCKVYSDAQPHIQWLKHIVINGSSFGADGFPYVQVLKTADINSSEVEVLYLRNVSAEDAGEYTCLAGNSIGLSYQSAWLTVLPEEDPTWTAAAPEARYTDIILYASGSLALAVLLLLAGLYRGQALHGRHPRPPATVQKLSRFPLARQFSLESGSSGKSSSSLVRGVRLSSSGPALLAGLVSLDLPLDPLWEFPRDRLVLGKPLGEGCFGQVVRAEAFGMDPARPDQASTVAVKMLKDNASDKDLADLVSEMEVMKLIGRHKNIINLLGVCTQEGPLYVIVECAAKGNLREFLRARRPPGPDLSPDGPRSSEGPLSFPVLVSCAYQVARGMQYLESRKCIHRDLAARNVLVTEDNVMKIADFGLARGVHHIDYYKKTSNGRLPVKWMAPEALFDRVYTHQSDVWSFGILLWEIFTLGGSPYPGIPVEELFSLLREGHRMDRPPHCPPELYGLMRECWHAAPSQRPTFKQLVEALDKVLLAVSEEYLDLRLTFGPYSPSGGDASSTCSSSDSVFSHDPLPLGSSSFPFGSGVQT

[11] = molecular target: T1, Fibroblast growth factor receptor 4; experiment: Inhibition of FGFR4 in human Huh-7 cells assessed as inhibition of MEK phosphorylation at 0.5 uM by Western blot analysis; assay type: cell-based; details: time <= 24.0 hrs, TDE = time-dependent effect
[12] = molecular target: T1, Fibroblast growth factor receptor 4; experiment: Inhibition of FGFR4 in human Huh-7 cells assessed as inhibition of ERK1/2 phosphorylation at 0.5 uM by Western blot analysis; assay type: cell-based; details: time <= 24.0 hrs, TDE = time-dependent effect
Huh-7 [13] = experiment: Inhibition of colony formation in human Huh-7 cells assessed as reduction in number of colonies at 10 to 270 nM measured for 12 days; assay type: functional, cell-based; details: dose 10-270 nM, time 12.0 day
Huh-7 [14] = experiment: Induction of cell cycle arrest in human Huh-7 cells assessed as accumulation of cells at G0/G1 phase at 1 to 2 uM measured after 48 hrs by propidium iodide staining based flow cytometry analysis; assay type: functional; details: dose 1-2 µM
Huh-7 [15] = experiment: Induction of apoptosis in human Huh-7 cells assessed as late apoptotic cells at 1 uM measured after 48 hrs by AnnexinV-FITC/PI staining based flow cytometry (reference value: 2.55%); assay type: functional
Huh-7 [16] = experiment: Induction of apoptosis in human Huh-7 cells assessed as late apoptotic cells at 2 uM measured after 48 hrs by AnnexinV-FITC/PI staining based flow cytometry (reference value: 2.55%); assay type: functional
Huh-7 [17] = experiment: Inhibition of cell migration in human Huh-7 cells at 5 uM incubated for 24 hrs by wound healing assay relative to control; assay type: functional
Huh-7 [18] = experiment: Antitumor activity against human Huh-7 cells xenografted in NSG mouse assessed as suppression of tumor growth at 20 mg/kg, ip administered twice per day for 2 weeks relative to control; assay type: functional
Huh-7 [19] = experiment: Antitumor activity against human Huh-7 cells xenografted in NSG mouse assessed as suppression of tumor growth at 40 mg/kg, ip administered twice per day for 2 weeks relative to control; assay type: functional
Huh-7 [20] = experiment: Antitumor activity against human Huh-7 cells xenografted in ip dosed NSG mouse assessed as suppression of tumor growth administered twice per day for 2 weeks; assay type: functional, organism-based; details: dose 20-40 mg/kg
Huh-7 [21] = experiment: Antitumor activity against human Huh-7 cells xenografted in ip dosed NSG mouse assessed as decrease in Ki-67 expression administered twice per day for 2 weeks; assay type: functional, organism-based; details: dose 20-40 mg/kg
[22] = Toxicity in NSG mouse assessed as effect on heart at 20 to 40 mg/kg by H and E staining based analysis; assay type: organism-based; details: in vivo, dose 20-40 mg/kg
[23] = Toxicity in NSG mouse assessed as effect on liver at 20 to 40 mg/kg by H and E staining based analysis; assay type: organism-based; details: in vivo, dose 20-40 mg/kg
[24] = Toxicity in NSG mouse assessed as effect on spleen at 20 to 40 mg/kg by H and E staining based analysis; assay type: organism-based; details: in vivo, dose 20-40 mg/kg
[25] = Toxicity in NSG mouse assessed as effect on lung at 20 to 40 mg/kg by H and E staining based analysis; assay type: organism-based; details: in vivo, dose 20-40 mg/kg
[26] = Toxicity in NSG mouse assessed as effect on kidney at 20 to 40 mg/kg by H and E staining based analysis; assay type: organism-based; details: in vivo, dose 20-40 mg/kg
[27] = Toxicity in NSG mouse assessed as lethality at 20 to 40 mg/kg […]; assay type: organism-based; details: in vivo, dose 20-40 mg/kg
[28] = Toxicity in NSG mouse assessed as effect on body weight at 20 to 40 mg/kg […]; assay type: organism-based; details: in vivo, dose 20-40 mg/kg
[29] = Toxicity in NSG mouse assessed as effect on AST level at 20 to 40 mg/kg […]; assay type: organism-based; details: in vivo, dose 20-40 mg/kg
[30] = Toxicity in NSG mouse assessed as effect on ALT level at 20 to 40 mg/kg […]; assay type: organism-based; details: in vivo, dose 20-40 mg/kg
[31] = Toxicity in NSG mouse assessed as effect on ALP level at 20 to 40 mg/kg […]; assay type: organism-based; details: in vivo, dose 20-40 mg/kg
[32] = Toxicity in NSG mouse assessed as effect on TP level at 20 to 40 mg/kg […]; assay type: organism-based; details: in vivo, dose 20-40 mg/kg
[33] = Toxicity in NSG mouse assessed as effect on UA level at 20 to 40 mg/kg […]; assay type: organism-based; details: in vivo, dose 20-40 mg/kg
[34] = Toxicity in NSG mouse assessed as effect on LDH level at 20 to 40 mg/kg […]; assay type: organism-based; details: in vivo, dose 20-40 mg/kg
[35] = Toxicity in NSG mouse assessed as effect on LDL-C level at 20 to 40 mg/kg […]; assay type: organism-based; details: in vivo, dose 20-40 mg/kg
[36] = Toxicity in NSG mouse assessed as effect on HDL-C level at 20 to 40 mg/kg […]; assay type: organism-based; details: in vivo, dose 20-40 mg/kg
[37] = Toxicity in NSG mouse assessed as effect on CHO level at 20 to 40 mg/kg […]; assay type: organism-based; details: in vivo, dose 20-40 mg/kg
[38] = Toxicity in NSG mouse assessed as effect on UREA level at 20 to 40 mg/kg […]; assay type: organism-based; details: in vivo, dose 20-40 mg/kg
[39] = molecular target: Fibroblast growth factor receptor 2 (Homo sapiens, UniProt P21802)
Fibroblast growth factor receptor 2, sequence (P21802 whole entry): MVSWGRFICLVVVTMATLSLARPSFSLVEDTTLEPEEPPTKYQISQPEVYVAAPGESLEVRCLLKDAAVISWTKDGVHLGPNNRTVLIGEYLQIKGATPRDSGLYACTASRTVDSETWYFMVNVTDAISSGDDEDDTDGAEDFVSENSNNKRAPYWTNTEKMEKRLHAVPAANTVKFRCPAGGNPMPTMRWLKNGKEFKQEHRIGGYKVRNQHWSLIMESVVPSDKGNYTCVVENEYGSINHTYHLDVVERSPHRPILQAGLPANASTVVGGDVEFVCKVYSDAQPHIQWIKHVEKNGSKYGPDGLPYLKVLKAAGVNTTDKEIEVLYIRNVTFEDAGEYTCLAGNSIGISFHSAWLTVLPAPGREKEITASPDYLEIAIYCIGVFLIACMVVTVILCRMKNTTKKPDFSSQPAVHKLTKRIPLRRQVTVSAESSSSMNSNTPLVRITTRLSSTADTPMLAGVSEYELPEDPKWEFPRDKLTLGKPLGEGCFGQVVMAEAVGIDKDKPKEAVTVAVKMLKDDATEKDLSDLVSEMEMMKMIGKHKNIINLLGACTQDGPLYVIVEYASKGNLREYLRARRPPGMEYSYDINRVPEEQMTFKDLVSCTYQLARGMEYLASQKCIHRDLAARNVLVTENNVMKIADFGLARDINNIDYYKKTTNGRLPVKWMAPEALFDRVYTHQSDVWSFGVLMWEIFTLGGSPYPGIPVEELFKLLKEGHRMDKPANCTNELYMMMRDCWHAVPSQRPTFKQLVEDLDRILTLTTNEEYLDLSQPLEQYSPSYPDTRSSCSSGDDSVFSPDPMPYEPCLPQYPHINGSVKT
Description: Inhibition of FGFR2 (unknown origin)

[40] = molecular target: Fibroblast growth factor receptor 3 (Homo sapiens, UniProt P22607)
Fibroblast growth factor receptor 3, sequence (P22607 whole entry): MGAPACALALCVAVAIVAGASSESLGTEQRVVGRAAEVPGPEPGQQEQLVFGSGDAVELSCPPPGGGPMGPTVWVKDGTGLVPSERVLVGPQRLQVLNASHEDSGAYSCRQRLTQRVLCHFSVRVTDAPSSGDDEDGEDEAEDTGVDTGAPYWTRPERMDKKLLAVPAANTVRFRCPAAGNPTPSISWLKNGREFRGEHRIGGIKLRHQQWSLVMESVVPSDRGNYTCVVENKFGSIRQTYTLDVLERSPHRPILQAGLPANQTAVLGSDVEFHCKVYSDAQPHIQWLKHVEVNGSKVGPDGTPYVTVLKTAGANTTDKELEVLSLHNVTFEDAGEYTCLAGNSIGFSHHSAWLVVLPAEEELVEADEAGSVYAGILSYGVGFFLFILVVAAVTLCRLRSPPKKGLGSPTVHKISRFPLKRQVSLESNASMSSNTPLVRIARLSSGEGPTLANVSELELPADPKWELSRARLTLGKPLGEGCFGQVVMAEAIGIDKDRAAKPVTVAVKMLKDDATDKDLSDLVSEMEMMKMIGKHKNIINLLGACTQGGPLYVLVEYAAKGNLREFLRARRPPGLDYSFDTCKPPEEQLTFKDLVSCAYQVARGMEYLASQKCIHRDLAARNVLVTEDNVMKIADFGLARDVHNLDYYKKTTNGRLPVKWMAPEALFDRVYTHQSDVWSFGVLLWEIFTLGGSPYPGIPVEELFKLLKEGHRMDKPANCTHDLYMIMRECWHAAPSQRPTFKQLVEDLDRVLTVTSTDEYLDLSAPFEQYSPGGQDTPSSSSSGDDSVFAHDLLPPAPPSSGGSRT
Description: Inhibition of FGFR3 (unknown origin)

Huh-7 [41] = experiment: cells; details: Homo sapiens
Description: Antiproliferative activity against human Huh-7 cells measured after 24 to 48 hrs by MTT assay

BaF3 [42] = experiment: cells; details: Mus musculus
Description: Antiproliferative activity against mouse BaF3 cells harbouring ETV6-FGFR4-V550L mutant measured after 24 to 48 hrs by MTT assay

BaF3 [43] = experiment: cells; details: Mus musculus; remark: listed apart in the source
Description: Antiproliferative activity against mouse BaF3 cells harbouring ETV6-FGFR4-N535K mutant measured after 24 to 48 hrs by MTT assay

## C=CC(=O)Nc1cc2c(cc1-c1n[nH]c3ccc(O[C@H](C)c4c(Cl)cncc4Cl)cc13)CCN(C)C2
[1]
  half-life: 8.99 min
Hep 3B2
  IC50: 0.038 µM
HepG2
  IC50: > 5 µM
[2]
  half-life: 2.59 h
[3]
  Cmax: 214 ng/mL
[4]
  Cmax: 4.91 ng/mL
[5]
  AUC(0-t): 192 ng·h/mL
[6]
  MRT last: 1.55 h
[7]
  MRT last: 3.04 h
[8]
  clearance: 174 mL/min/kg
[9]
  bioavailability: 1.36%
[10]
  inhibition: Dose-Dependent Effect
[11]
  inhibition: Tde
[12]
  inhibition: Tde
Huh-7 [13]
  inhibition: Active
Huh-7 [14]
  Activity: Active
Huh-7 [15]
  Activity: 7.46%
Huh-7 [16]
  Activity: 11.39%
Huh-7 [17]
  inhibition at 5 µM: 90%
Huh-7 [18]
  Activity: 60.2%
Huh-7 [19]
  Activity: 83%
Huh-7 [20]
  Activity: Dose-Dependent Effect
Huh-7 [21]
  Activity: Dose-Dependent Effect
[22]
  Activity: Non-Toxic
[23]
  Activity: Non-Toxic
[24]
  Activity: Non-Toxic
[25]
  Activity: Non-Toxic
[26]
  Activity: Non-Toxic
[27]
  Activity: Non-Toxic
[28]
  Activity: Non-Toxic
[29]
  Activity: Non-Toxic
[30]
  Activity: Non-Toxic
[31]
  Activity: Non-Toxic
[32]
  Activity: Non-Toxic
[33]
  Activity: Non-Toxic
[34]
  Activity: Non-Toxic
[35]
  Activity: Non-Toxic
[36]
  Activity: Non-Toxic
[37]
  Activity: Non-Toxic
[38]
  Activity: Non-Toxic
[39]
  IC50: > 3000 µM
[40]
  IC50: > 3000 µM
Huh-7 [41]
  IC50: 0.021 µM
BaF3 [42]
  IC50: 0.002 µM
BaF3 [43]
  IC50: 0.172 µM
